Where “and” joins values, the source holds several entries; their conditions need not be identical. Equal entries are not always repeated.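 Dose response: 5 concentrations. Exposure: 48 h. Format: 96-well plates. Endpoint: linear interpolation; highest concentration if not reached. Abbreviation: GI50, concentration required for 50% inhibition of growth. TGI: total growth inhibition.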
Columns and labels:
Assay in all cases: NCI-60 cell line screen, 48 h
SF-539 CNS = tested on: SF-539 CNS
NCI/ADR-RES ovarian = tested on: NCI/ADR-RES ovarian
MDA-MB-231 breast = tested on: MDA-MB-231 breast
SF-268 CNS = tested on: SF-268 CNS
DU-145 prostate = tested on: DU-145 prostate
786-0 renal = tested on: 786-0 renal
EKVX NSCLC = tested on: EKVX NSCLC
RXF 393 renal = tested on: RXF 393 renal
M14 melanoma = tested on: M14 melanoma
NCI-H522 lung = tested on: NCI-H522 lung

Structure (SMILES)	GI50 (SF-539 CNS)	TGI (SF-539 CNS)	GI50 (NCI/ADR-RES ovarian)	TGI (NCI/ADR-RES ovarian)	GI50 (MDA-MB-231 breast)	TGI (MDA-MB-231 breast)	GI50 (SF-268 CNS)	TGI (SF-268 CNS)	GI50 (DU-145 prostate)	TGI (DU-145 prostate)	GI50 (786-0 renal)	TGI (786-0 renal)	GI50 (EKVX NSCLC)	TGI (EKVX NSCLC)	GI50 (RXF 393 renal)	TGI (RXF 393 renal)	GI50 (M14 melanoma)	TGI (M14 melanoma)	GI50 (NCI-H522 lung)	TGI (NCI-H522 lung)
Clc1ccc(Nc2nnc(COc3ccccc3)c3ccccc23)cc1	3120 nM	7.58 µM	2620 nM	16.6 µM	1280 nM	6.9 µM	2230 nM	12.9 µM	2650 nM	10.5 µM	2600 nM	8.11 µM	679 nM	7.32 µM	1010 nM	4.98 µM	918 nM	5.03 µM	354 nM	4.04 µM
O=C(Nc1ccc([N+](=O)[O-])cc1Cl)c1cc(Cl)ccc1O	188 nM and 261 nM	4.3 µM and 12 µM	137 nM and 231 nM	0.536 µM and 1.35 µM	110 nM and 162 nM	0.461 µM and 0.593 µM	152 nM and 317 nM	–	199 nM and 352 nM	6.22 µM and 35.5 µM	142 nM and 268 nM	0.488 µM and 0.825 µM	160 nM and 315 nM	–	135 nM and 268 nM	0.434 µM and 2.71 µM	160 nM and 318 nM	0.645 µM and 1.75 µM	76.4 nM and 171 nM	–
Cc1cc(C(=O)NOCCO)c(Nc2ccc(I)cc2F)n(C)c1=O	> 38500 nM	> 100 µM	> 90600 nM	> 100 µM	7.5 nM and < 10 nM	> 100 µM	> 100000 nM	> 100 µM	> 10000 nM and 53800 nM	> 100 µM	> 83900 nM	> 100 µM	23.3 nM	> 10 µM	91.5 nM and 199 nM	> 10 µM and 92.3 µM	1.59 nM and < 10 nM	2.89 µM	> 10000 nM and 13700 nM	> 100 µM
O=C1NC(=O)/C(=C/c2ccc3nccc(-c4ccncc4)c3c2)S1	294 nM	1.58 µM	885 nM	> 10 µM	387 nM	3.92 µM	346 nM	5.15 µM	431 nM	> 5.79 µM	345 nM	3.15 µM	407 nM	3.67 µM	251 nM	1.3 µM	365 nM	2.79 µM	230 nM	1.81 µM
NS(=O)(=O)c1ccc(NC(=O)Nc2cccc3ccccc23)cc1	–	50.8 µM	–	> 100 µM	–	41.1 µM	–	39.3 µM	–	81.3 µM	–	38 µM	–	80.8 µM	–	> 100 µM	–	> 100 µM	–	34.9 µM
C=C1CC2(CC(c3ccccc3C)OC(c3ccccc3C)C2)OC1=O (configuration not stated)	–	3.1 µM	–	14.3 µM	–	3.17 µM	–	3.6 µM	–	24.6 µM	–	4.74 µM	–	30.1 µM	–	3.88 µM	–	3.02 µM	–	3.23 µM
OC(CBr)C(O)C(O)C(O)CBr (configuration not stated)	–	> 100 µM	> 100000 nM	> 100 µM	–	> 100 µM	> 40600 nM and 19300 nM	> 100 µM	–	> 100 µM	–	> 67.9 µM	–	> 100 µM	–	> 100 µM	–	> 100 µM	–	> 100 µM
C[C@H]1O[C@@H](O[C@H]2[C@@H](O)C[C@H](O[C@H]3[C@@H](O)C[C@H](O[C@H]4CC[C@]5(C)C6CC[C@]7(C)[C@@H](C8=CC(=O)OC8)CC[C@]7(O)C6CC[C@@H]5C4)O[C@@H]3C)O[C@@H]2C)C[C@H](O)[C@@H]1O (some centres not stated)	14.1 nM	0.0373 µM	14.4 nM	0.0435 µM	62.1 nM	0.353 µM	15.9 nM	0.0578 µM	11.3 nM	0.0249 µM	17.2 nM	0.0596 µM	14.1 nM	0.0383 µM	14.2 nM	0.0439 µM	32.8 nM	0.0986 µM	–	0.0319 µM
Cc1ccc(O)c(C(=O)/C=C/c2ccccc2)c1	–	> 100 µM	–	> 100 µM	–	> 100 µM	–	> 100 µM	–	> 100 µM	–	> 100 µM	–	> 100 µM	–	> 100 µM	–	> 100 µM	–	> 100 µM
N/C(=N/O)NOCCC(N)C(=O)O (configuration not stated)	> 100000 nM	> 100 µM	> 100000 nM	> 100 µM	> 100000 nM	> 100 µM	> 100000 nM	> 100 µM	> 100000 nM	> 100 µM	> 100000 nM	> 100 µM	> 100000 nM	> 100 µM	> 100000 nM	> 100 µM	> 100000 nM	> 100 µM	> 100000 nM	> 100 µM
COc1cc(N2CCN(C(C)C)CC2)ccc1Nc1nc(Nc2ccc(F)cc2C(N)=O)c2cc[nH]c2n1	2760 nM	6.33 µM	3760 nM	11.6 µM	2980 nM	7.22 µM	3360 nM	7.92 µM	234 nM	4.63 µM	1330 nM	5.45 µM	480 nM	7.19 µM	857 nM	5.27 µM	180 nM	4.07 µM	2800 nM	6.42 µM
CNC(=O)c1cc(Oc2ccc(NC(=O)Nc3ccc(Cl)c(C(F)(F)F)c3)cc2)ccn1	1970 nM and 2320 nM and 1620 nM	> 10 µM and 9.07 µM and 4.82 µM	3060 nM and 2630 nM and 2650 nM	> 10 µM and 7.89 µM and 15.7 µM	1740 nM and 1620 nM and 1330 nM	4.4 µM and 4.42 µM and 4.14 µM	4150 nM and 2730 nM and 2630 nM	> 10 µM and 10.8 µM and 7.88 µM	4550 nM and 3040 nM and 3110 nM	> 10 µM and 9.33 µM and 10.7 µM	4040 nM and 3000 nM and 3420 nM	> 10 µM and 9.4 µM and 13.2 µM	3240 nM and 2510 nM and 2670 nM	> 10 µM and 7.86 µM and 13 µM	3580 nM and 2880 nM and 3410 nM	> 10 µM and 9.26 µM and 9.86 µM	2150 nM and 2110 nM and 2180 nM	7.98 µM and 5.03 µM and 5.96 µM	1790 nM and 2140 nM and 2060 nM	5.79 µM and 5.64 µM and 6.29 µM
O=C(Nc1ccn(C2CCC(COC(c3ccccc3)(c3ccccc3)c3ccccc3)O2)c(=O)n1)c1ccccc1 (configuration not stated)	–	7 µM	–	8.73 µM	–	13.9 µM	–	17.4 µM	–	15.5 µM	–	6.41 µM	–	14.4 µM	–	11.1 µM	–	11.8 µM	–	19.2 µM
Cn1cc(-c2[nH]c3cc(NC(=O)[C@H](N)C4CCCCC4)cc4c3c2C=NNC4=O)cn1	118 nM and 109 nM	0.67 µM and 0.628 µM	9800 nM	> 74.4 µM	866 nM and 562 nM	12.4 µM and > 10 µM	305 nM and 324 nM	13.1 µM and > 10 µM	508 nM and 528 nM	19.8 µM and > 10 µM	256 nM and 315 nM	–	6830 nM and 5990 nM	21.8 µM and > 10 µM	104 nM and 187 nM	0.502 µM and 0.745 µM	163 nM and 234 nM	0.493 µM and > 4.31 µM	352 nM and 222 nM	1.96 µM and 2.77 µM
c1ccc2c(c1)CCCc1nnc3nc4ccccc4n3c1-2	3570 nM	18.4 µM	3320 nM	25.1 µM	4980 nM	> 100 µM	5730 nM	> 100 µM	4910 nM	> 100 µM	5120 nM	> 100 µM	4020 nM	> 100 µM	3080 nM	32.7 µM	3130 nM	25.2 µM	12700 nM	33 µM
Cc1ccccc1N=C(c1ccccc1)C1C(=O)c2ccccc2C1=O	12100 nM	> 100 µM	8730 nM	47.3 µM	21300 nM	> 100 µM	13300 nM	40.2 µM	22400 nM	69.6 µM	7050 nM	36 µM	22200 nM	87.6 µM	7370 nM	> 100 µM	2670 nM	13.2 µM	1990 nM	17.7 µM
COc1ccc(/C=C2\CCC(C)(CN(C)C)C2=O)cc1Br (configuration not stated)	–	43.5 µM	–	43.2 µM	–	68.1 µM	–	23.3 µM	–	> 100 µM	–	34.9 µM	–	49.3 µM	–	35.7 µM	–	35.1 µM	–	32.8 µM
